Like-named read-outs stand apart in the source and are kept apart here. Marks after values point to notes of the source that are not given here.
What was measured:
[1] = test system: Influenza A strain New Caledonia (H1N1); type: cell-based; details: NBL-2 cells, MOI 0.01, 24 h
[2] = test system: Influenza A strain California (H3N2); type: cell-based; details: Table 9, NBL-2 cells, MOI 0.001, 24 h
[3] = test system: Influenza A strain Victoria (H3N2); assay: Virus yield reduction assay, Influenza A Victoria (H3N2); type: cell-based, Influenza A H3N2 (strain Victoria/3/75); details: Table 10, NBL-2 cells, MOI 0.01, 24 h
[4] = test system: Adenovirus 3; assay: Virus yield reduction assay, Adenovirus 3; type: cell-based; details: A549 cells, MOI 0.05, 4 days
[5] = test system: Adenovirus 5; assay: Virus yield reduction assay, Adenovirus 5; type: cell-based; details: A549 cells, MOI 0.05, 4 days
[6] = test system: Human metapneumovirus; assay: Virus yield reduction assay, Human metapneumovirus; type: cell-based; details: MK2 cells, MOI 0.1, 8 days
[7] = test system: Enterovirus 71; assay: Virus yield reduction assay, Enterovirus 71; type: cell-based; details: HFF, MOI 0.1, 3 days
[8] = test system: Coxsackie virus A9; assay: Virus yield reduction assay, Coxsackie virus A9; type: cell-based; details: HFF, MOI 0.005, 3 days
[9] = test system: Echo virus 11; assay: Virus yield reduction assay, Echo virus 11; type: cell-based; details: HFF, MOI 0.005, 3 days
[10] = test system: Echo virus 30; assay: Virus yield reduction assay, Echo virus 30; type: cell-based; details: HFF, MOI 0.01, 3 days
[11] = test system: Human cytomegalovirus Hi91; assay: Virus yield reduction assay, Human cytomegalovirus Hi91; type: cell-based; details: HFF, MOI 0.02, 5 days
[12] = test system: Human cytomegalovirus AD169; assay: Virus yield reduction assay, Human cytomegalovirus AD169; type: cell-based; details: HFF, MOI 0.02, 5 days
[13] = test system: IFN-α; assay: Circulating IFN-α levels in blood serum of volunteers with acute respiratory infection; type: in vivo, human; details: for IFN-α Mean value / IFN-α Median: blood serum
Source text: (§1) Increase of IFN-α levels was also observed in patients treated with Placebo, yet, this growth was less intensive than in FAV00A group (Table 22).

[14] = test system: IFN-γ; assay: Circulating IFN-γ levels in blood serum of volunteers with acute respiratory infection; type: in vivo, human; details: for IFN-γ Mean value / IFN-γ Median: blood serum
Source text: as §1

[15] = test system: blood monocytes; assay: Blood monocytes level (complete blood counts) of volunteers; type: in vivo, human; details: throughout the study; control group decreased by V3 and V4
Source text: The results of investigating FAV00A effect of body interferon status correlate with the data collected during statistical processing of volunteers' complete blood counts. […] This fact is indicative of limitation of viral infection immunosuppressive effect on cellular immunity responses in FAV00A treatment group.

[16] = Table 8, 400 μg with 45 minutes pre-incubation
[17] = Table 8, 400 μg without pre-incubation
[18] = 7-th day of the drug intake (Visit V3)
[19] = Visit V3 (7-th day of drug intake)

In the case of C[n+]1ccc(C(=O)NCc2ccccc2)cc1 [FAV00A, carbabenzpyride], the “% virus yield relative to control” value [1, 16] is reported as 52%, the Fold reduction [1, 16] is reported as 1.92 and the “Titer (TCID50/ml)” value [1, 16] is reported as 1.10 * 10^6 TCID50/ml. The “% virus yield relative to control” value [1, 17] was 31%, the Fold reduction [1, 17] was 3.23 and the “Titer (TCID50/ml)” value [1, 17] was 6.56 * 10^5 TCID50/ml. For the same molecule, the “% virus yield relative to control” value ([1]; Table 11a, 400 μg) was 32%, the Fold reduction ([1]; Table 11a, 400 μg) was 3.13 and the “Titer (TCID50/ml)” value ([1]; Table 11a, 400 μg) was 6.81 * 10^3 TCID50/ml. For the same molecule, the “% virus yield relative to control” value ([1]; Table 12b, 800 μg) was 28%, the Fold reduction ([1]; Table 12b, 800 μg) was 3.57 and the “Titer (TCID50/ml)” value ([1]; Table 12b, 800 μg) was 2.70 * 10^6 TCID50/ml. For the same molecule, the “% virus yield relative to control” value ([2]; 400 μg) was 76%, the Fold reduction ([2]; 400 μg) was 1.32 and the “Titer (TCFD50/ml)” value ([2]; 400 μg) was 2.25 * 10^4 TCFD50/ml. For the same molecule, the “% virus yield relative to control” value ([2]; 800 μg) was 61%, the Fold reduction ([2]; 800 μg) was 1.64 and the “Titer (TCFD50/ml)” value ([2]; 800 μg) was 1.80 * 10^4 TCFD50/ml. The “% virus yield relative to control” value ([3]; 400 μg) was 41%, the Fold reduction ([3]; 400 μg) was 2.44 and the “Titer (TCID50/ml)” value ([3]; 400 μg) was 1.20 * 10^6 TCID50/ml. For the same molecule, the “% virus yield relative to control” value ([3]; 800 μg) was 27%, the Fold reduction ([3]; 800 μg) was 3.70 and the “Titer (TCID50/ml)” value ([3]; 800 μg) was 7.75 * 10^5 TCID50/ml. For the same molecule, the Virus titre ([4]; FAV00A 12.5 μg/ml) was 7.2 × 10^7 TCID50/ml, the “% titre reduction in comparison to virus control” value (“% titre reduction in comparison” for short) ([4]; FAV00A 25 μg/ml) was “(11.3%)” and the Virus titre ([4]; FAV00A 25 μg/ml) was 5.4 × 10^7 TCID50/ml. For the same molecule, the “% titre reduction in comparison” value ([4]; FAV00A 50 μg/ml) was “(43.5%)^1”, the Virus titre ([4]; FAV00A 50 μg/ml) was 3.4 × 10^7 TCID50/ml and the Virus titre ([5]; FAV00A 12.5 μg/ml) was 7.0 × 10^8 TCID50/ml. The “% titre reduction in comparison” value ([5]; FAV00A 25 μg/ml) was “(43.7%)”, the Virus titre ([5]; FAV00A 25 μg/ml) was 3.0 × 10^8 TCID50/ml and the “% titre reduction in comparison” value ([5]; FAV00A 50 μg/ml) was “(68.4%)^1”. For the same molecule, the Virus titre ([5]; FAV00A 50 μg/ml) was 1.7 × 10^8 TCID50/ml, the “% titre reduction in comparison” value ([6]; FAV00A 125 μg/ml) was “(88.5%)” and the Virus titre ([6]; FAV00A 125 μg/ml) was 4.0 × 10^4 TCID50/ml. The Virus titre ([6]; FAV00A 250 μg/ml) was 5.4 × 10^4 TCID50/ml, the “% titre reduction in comparison” value ([6]; FAV00A 500 μg/ml) was “(95.6%)^1” and the Virus titre ([6]; FAV00A 500 μg/ml) was 2.0 × 10^3 TCID50/ml. For the same molecule, the Virus titre ([7]; FAV00A 50 μg/ml) was 5.4 × 10^3 TCID50/ml, the “% titre reduction in comparison” value ([7]; FAV00A 100 μg/ml) was “(83.6%)” and the Virus titre ([7]; FAV00A 100 μg/ml) was 6.5 × 10^2 TCID50/ml. The “% titre reduction in comparison” value ([7]; FAV00A 200 μg/ml) was “(97.6%)^1”, the Virus titre ([7]; FAV00A 200 μg/ml) was 9.6 × 10^1 TCID50/ml and the “% titre reduction in comparison” value ([8]; FAV00A 12.5 μg/ml) was “(45.3%)”. For the same molecule, the Virus titre ([8]; FAV00A 12.5 μg/ml) was 1.7 × 10^4 TCID50/ml, the “% titre reduction in comparison” value ([8]; FAV00A 25 μg/ml) was “(45.7%)” and the Virus titre ([8]; FAV00A 25 μg/ml) was 1.7 × 10^5 TCID50/ml. The “% titre reduction in comparison” value ([8]; FAV00A 50 μg/ml) was “(65.3%)^1”, the Virus titre ([8]; FAV00A 50 μg/ml) was 1.1 × 10^5 TCID50/ml and the “% titre reduction in comparison” value ([9]; FAV00A 62.5 μg/ml) was “(41.8%)”. The Virus titre ([9]; FAV00A 62.5 μg/ml) was 1.8 × 10^8 TCID50/ml, the “% titre reduction in comparison” value ([9]; FAV00A 125 μg/ml) was “(36.4%)” and the Virus titre ([9]; FAV00A 125 μg/ml) was 1.9 × 10^8 TCID50/ml. The “% titre reduction in comparison” value ([9]; FAV00A 250 μg/ml) was “(79.9%)^1”, the Virus titre ([9]; FAV00A 250 μg/ml) was 6.1 × 10^7 TCID50/ml and the Virus titre ([10]; FAV00A 25 μg/ml) was 1.2 × 10^8 TCID50/ml. For the same molecule, the “% titre reduction in comparison” value ([10]; FAV00A 50 μg/ml) was “(17.0%)”, the Virus titre ([10]; FAV00A 50 μg/ml) was 7.9 × 10^7 TCID50/ml and the “% titre reduction in comparison” value ([10]; FAV00A 100 μg/ml) was “(68.3%)^1”. The Virus titre ([10]; FAV00A 100 μg/ml) was 3.0 × 10^7 TCID50/ml, the “% titre reduction in comparison” value ([11]; FAV00A 125 μg/ml) was “(24.9%)” and the “% titre reduction in comparison” value ([11]; FAV00A 250 μg/ml) was “(86.0%)”. For the same molecule, the Virus titre ([11]; FAV00A 250 μg/ml) was 5.2 × 10^3 TCID50/ml, the “% titre reduction in comparison” value ([11]; FAV00A 500 μg/ml) was “(93.5%)^1” and the Virus titre ([11]; FAV00A 500 μg/ml) was 2.4 × 10^3 TCID50/ml. For the same molecule, the Virus titre ([12]; FAV00A 125 μg/ml) was 2.2 × 10^5 TCID50/ml, the Virus titre ([12]; FAV00A 250 μg/ml) was 1.0 × 10^5 TCID50/ml and the “% titre reduction in comparison” value ([12]; FAV00A 500 μg/ml) was “(41.1%)^1”. For the same molecule, the Virus titre ([12]; FAV00A 500 μg/ml) was 5.3 × 10^4 TCID50/ml, the “IFN-α levels versus the baseline values and Placebo group” value [13, 18] was “Significant elevation” and the “IFN-α Mean value” ([13]; Visit V1 (baseline)) was 22.290. The “IFN-α Median” value ([13]; Visit V1 (baseline)) was 23.7, the “IFN-α Mean value” [13, 19] was 37.563* and the “IFN-α Median” value [13, 19] was 37.4*. The “IFN-α Mean value” ([13]; Visit V4) was 30.072*, the “IFN-α Median” value ([13]; Visit V4) was 30.55* and the “IFN-γ levels versus the baseline values and Placebo group” value [14, 18] was “Significant elevation”. The “IFN-γ Mean value” ([14]; Visit V1 (baseline)) was 33.168, the “IFN-γ Median” value ([14]; Visit V1 (baseline)) was 33.25 and the “IFN-γ Mean value” [14, 19] was 44.670*. The “IFN-γ Median” value [14, 19] was 45.85*, the “IFN-γ Mean value” ([14]; Visit V4) was 41.313* and the “IFN-γ Median” value ([14]; Visit V4) was 40.1*. For the same molecule, the “Change of blood monocytes level” value [15] was “No considerable decrease”.

CC(=O)N[C@H]1[C@H]([C@H](O)[C@H](O)CO)OC(C(=O)O)=C[C@@H]1N=C(N)N [Zanamivir, reference compound] was tested, and the “% virus yield relative to control” value ([1]; Table 8, 10 ng) was 23%, the Fold reduction ([1]; Table 8, 10 ng) was 4.35 and the “Titer (TCID50/ml)” value ([1]; Table 8, 10 ng) was 4.85 * 10^5 TCID50/ml. The “% virus yield relative to control” value ([1]; Table 11a, 100 ng) was 3%, the Fold reduction ([1]; Table 11a, 100 ng) was 33.33 and the “Titer (TCID50/ml)” value ([1]; Table 11a, 100 ng) was 7.00 * 10^4 TCID50/ml. The “% virus yield relative to control” value ([1]; Table 12b, 100 ng) was 15%, the Fold reduction ([1]; Table 12b, 100 ng) was 6.67 and the “Titer (TCID50/ml)” value ([1]; Table 12b, 100 ng) was 1.42 * 10^6 TCID50/ml. The “% virus yield relative to control” value ([2]; 100 ng) was 0.4%, the Fold reduction ([2]; 100 ng) was 250 and the “Titer (TCFD50/ml)” value ([2]; 100 ng) was 1.18 * 10^2 TCFD50/ml. For the same molecule, the “% virus yield relative to control” value ([3]; 100 ng) was 0.02%, the Fold reduction ([3]; 100 ng) was 5000 and the “Titer (TCID50/ml)” value ([3]; 100 ng) was 7.05 * 10^2 TCID50/ml.
